The values below come from patent US9682092B2, “Boron-containing small molecules as anti-inflammatory agents” (ANACOR PHARMACEUTICALS, INC., priority 2006, dated 2017).

Where only a bound is given, the exact number is not on record here.

Broadly, the melting point is the temperature of the solid-liquid transition.

System in the first data set: not given
Test: not given
Conditions: not given
Compound `OB1OCc2cc(F)c(NCc3ccccc3)cc21` [C71, 6-(benzylamino)-5-fluorobenzo[c][1,2]oxaborol-1(3H)-ol] had a melting point of 159 to 164 °C.
`COc1ccc2c(c1)c(Sc1ccccc1)cn2-c1ccc2c(c1)B(O)OC2` [C72, 6-(5-methoxy-3-(phenylthio)-1H-indol-1-yl)benzo[c][1,2]oxaborol-1(3H)-ol] showed a melting point of 135 to 141 °C.
The same measure, in the same setting: as for `COc1ccc2c(c1)c(SCCC#N)cn2-c1ccc2c(c1)B(O)OC2` [C73, 3-(1-(1-hydroxy-1,3-dihydrobenzo[c][1,2]oxaborol-6-yl)-5-methoxy-1H-indol-3-ylthio)propanenitrile], the figure is 149 to 154 °C; as for `N#Cc1ccc(Oc2cccc3c2B(O)OC3)cc1` [C74, 4-(1-hydroxy-1,3-dihydrobenzo[c][1,2]oxaborol-7-yloxy)benzonitrile], 148 to 153 °C; as for `OB1OCc2ccc(-n3ccc4cc(Cl)ccc43)cc21` [C75, 6-(5-chloro-1H-indol-1-yl)benzo[c][1,2]oxaborol-1(3H)-ol], 149 to 154 °C.
Same read-out and setting: the value for `N#CCCSc1cn(-c2ccc3c(c2)B(O)OC3)c2ccc(Cl)cc12` [C76, 3-(5-chloro-1-(1-hydroxy-1,3-dihydrobenzo[c][1,2]oxaborol-6-yl)-1H-indol-3-ylthio)propanenitrile] was above 225 °C; that for `OB1OCc2ccc(NCc3ccccc3)cc21` [C77, 6-(benzylamino)benzo[c][1,2]oxaborol-1(3H)-ol] was 126 to 133 °C.
With `OB1OCc2ccc(N(Cc3ccccc3)Cc3ccccc3)cc21` [C78, 6-(dibenzylamino)benzo[c][1,2]oxaborol-1(3H)-ol], the melting point lay within 115 to 123 °C.
Still for that read-out and setting: as for `OB1OCc2ccc(-n3cc(Sc4ccccc4)c4cc(Cl)ccc43)cc21` [C80, 6-(5-chloro-3-(phenylthio)-1H-indol-1-yl)benzo[c][1,2]oxaborol-1(3H)-ol], the figure is 145 to 151 °C; as for `OB1OCc2cccc(F)c21` [C86, 7-fluorobenzo[c][1,2]oxaborol-1(3H)-ol], 120 to 124 °C; as for `OB1OCc2ccc(Oc3ccc(C(F)(F)F)cc3)cc21` [C87, 6-(4-(trifluoromethyl)phenoxy)benzo[c][1,2]oxaborol-1(3H)-ol], 98 to 105 °C.
Same read-out and setting: as for `OB1OCc2ccc(Sc3ccc(Cl)cc3)cc21` [C88, 6-(4-chlorophenylthio)benzo[c][1,2]oxaborol-1(3H)-ol], the figure is 157 to 161 °C.
Compound `[O-][S+](c1ccc(Cl)cc1)c1ccc2c(c1)B(O)OC2` (stereo not shown) [C89, 6-(4-chlorophenylsulfinyl)benzo[c][1,2]oxaborol-1(3H)-ol] came in with a melting point of 154 to 161 °C.
In turn, `O=S(=O)(c1ccc(Cl)cc1)c1ccc2c(c1)B(O)OC2` [C90, 6-(4-chlorophenylsulfonyl)benzo[c][1,2]oxaborol-1(3H)-ol] had a melting point of 157 to 163 °C.
As to `O=S(=O)(c1ccccc1)N(c1ccc2c(c1)COB2O)S(=O)(=O)c1ccccc1` [C91, N-(1-hydroxy-1,3-dihydrobenzo[c][1,2]oxaborol-5-yl)-N-(phenylsulfonyl)benzenesulfonamide], the melting point was in the range of 142 to 152 °C.
In turn, `OB1OCc2ccc(Sc3ccc(C(F)(F)F)cc3)cc21` [C92, 6-(4-(trifluoromethyl)phenylthio)benzo[c][1,2]oxaborol-1(3H)-ol] showed a melting point of 111 to 113 °C.
Same read-out and setting: as for `[O-][S+](c1ccc(C(F)(F)F)cc1)c1ccc2c(c1)B(O)OC2` (stereo not shown) [C93, 6-(4-(trifluoromethyl)phenylsulfinyl)benzo[c][1,2]oxaborol-1(3H)-ol], the figure is 79 to 88 °C; as for `CSc1ccc(Sc2ccc3c(c2)B(O)OC3)cc1` [C94, 6-(4-(methylthio)phenylthio)benzo[c][1,2]oxaborol-1(3H)-ol], 117 to 120 °C.
On the same count and under the same terms, as for `Cc1ccc(Sc2ccc3c(c2)B(O)OC3)cc1` [C95, 6-(p-tolylthio)benzo[c][1,2]oxaborol-1(3H)-ol], the figure is 139 to 144 °C; as for `N#Cc1cccc(COc2ccc3c(c2)COB3O)c1` [C96, 3-((1-hydroxy-1,3-dihydrobenzo[c][1,2]oxaborol-5-yloxy)methyl)benzonitrile], 147 to 150 °C; as for `N#Cc1ccc(Oc2cccc(B(O)O)c2)cc1` [C98, 3-(4-Cyanophenoxy)phenylboronic acid], 153 to 162 °C.
Turning to `Cc1cc(Oc2ccc(C#N)cc2)ccc1B(O)O` [C99, 4-(4-Cyanophenoxy)-2-Methylphenylboronic acid], the melting point was 161 to 165 °C.

Another data set has as its system PMA-induced ear swelling. In words: Topical, Phorbol Ester Mouse Ear Assay. Format: in vivo, CD-1 (Crl.) derived male mice. Conditions: 0.2 mg/ear×2 topical, 30 min before and 15 min after PMA; ear swelling measured 6 hours after PMA. The procedure:
5-(4-Cyanophenoxy)-1-hydroxy-2,1-dihydrobenzoxaborole and betamethasone were provided by Anacor Pharmaceuticals, Inc. Betamethasone is used to treat the itching, redness, dryness, crusting, scaling, inflammation, and discomfort of various skin conditions.
Test substances were each applied topically to the right ear of the test animal 30 minutes before and 15 minutes after Phorbol 12-Myristate 13-Acetate (PMA) was applied. The dosing volume was 20 μl/ear for solvent vehicle or 20 mg/ear for cream formulations.
Male CD-1 (Crl.) derived mice weighing 24±2 g were provided by BioLasco Taiwan (under Charles River Laboratories Technology Licensee). Space allocation for 10 animals was 29×18×13 cm. Mice were housed in APEC® cages. All animals were maintained in a controlled temperature (22° C.-23° C.) and humidity (70%-80%) environment with 12 hours light dark cycles for at least one week in MDS Pharma Services—Taiwan Laboratory prior to use. Free access to standard lab chow for mice (Lab Diet, Rodent Diet, PMI Nutrition International, USA) and tap water was granted. All aspects of this work including housing, experimentation and disposal of animals were performed in general accordance with the Guide for the Care and Use of Laboratory Animals (National Academy Press, Washington, D.C., 1996).
Groups of 5 CD-1 (Crl.) derived male mice weighing 24±2 g were used. PMA ([…] in 20 μl of Acetone) was applied topically to the anterior and posterior surfaces of the right ear to each animal. Vehicle (Ethanol:Acetone/1:1, 20 μL/ear or cream, 20 mg/ear) and test substances including 5-(4-cyanophenoxy)-1-hydroxy-2,1-dihydrobenzoxaborole and betamethasone were each applied 30 minutes before and 15 minutes after PMA application. […] Ear swelling was then measured by a Dyer model micrometer gauge at 6 hours after PMA application as an index of inflammation. Percent inhibition was calculated according to the formula: ([Ic−It]/Ic)×100%, where Ic and It refer to increase of ear thickness (mm) in control and treated mice, respectively. […]
For the compound `N#Cc1ccc(Oc2ccc3c(c2)COB3O)cc1` [C17, 5-(4-Cyanophenoxy)-1,3-dihydro-1-hydroxy-2,1-benzoxaborole], the “Percent inhibition of ear swelling induced by topical phorbol ester” value is given as 22%.

Still in this data set, the particulars now being: 1 mg/ear×2, versus vehicle or cream placebo control.
Consider `N#Cc1ccc(Oc2ccc3c(c2)COB3O)cc1` [C17, 5-(4-Cyanophenoxy)-1,3-dihydro-1-hydroxy-2,1-benzoxaborole], for which the “inhibition of the PMA-induced ear swelling (in words)” value is reported as “significant inhibition”.

Still in this data set, the particulars now being: 3 mg/ear topical, positive control; 6 hours after PMA.
For the compound `C[C@@H]1C[C@H]2[C@@H]3CCC4=CC(=O)C=C[C@]4(C)[C@@]3(F)[C@@H](O)C[C@]2(C)[C@@]1(O)C(=O)CO` [dexamethasone, Dexamethasone, reference compound], the “decrease in the ear swelling relative to the vehicle (Ethanol:Acetone/1:1)-treated group” value is recorded as 72%.
